Source: paper PMC5426640, “A novel multifunctional peptide oligomer of bacitracin with possible bioindustrial and therapeutic applications from a Korean food-source Bacillus strain” (PLoS ONE, 2017)
Where a SMILES comes first, the peptide text is derived from it. Bridges are numbered along the chain shown (N, C = ends). [ ]: non-standard residue; d: D form. The star is where a group is joined. Ileψ(thiazoline)Cys = CC[C@H](C)[C@H](N)C1=N[C@H](C(=O)*)CS1; dOrn = NCCC[C@@H](N)C(=O)O

Columns and labels:
Assay in all cases: ELISA of cytokine production in LPS-stimulated RAW 264.7 cells
Format in all cases: cell-based, mouse
Conditions in all cases: 10–100 μg/mL before LPS 1 μg/mL for 24 h; ELISA of supernatant
[1] = system: IL-6
Procedure: (§1) The concentration of nitrite in the supernatant was calculated using a sodium nitrite standard curve. The supernatant was analyzed for TNF-α, IL-1β, and IL-6 by ELISAs using commercial kits (BD Biosciences) according to the manufacturer’s instructions.

[2] = system: IL-1β
Procedure: as §1

[3] = system: TNF-α
Procedure: as §1

CC[C@H](C)[C@H](N)C1=N[C@H](C(=O)N[C@@H](CC(C)C)C(=O)N[C@H](CCC(=O)O)C(=O)N[C@H](C(=O)N[C@H]2CCCCNC(=O)[C@H](CC(N)=O)NC(=O)[C@@H](CC(=O)O)NC(=O)[C@H](Cc3c[nH]cn3)NC(=O)[C@@H](Cc3ccccc3)NC(=O)[C@H]([C@@H](C)CC)NC(=O)[C@@H](CCCN)NC2=O)[C@@H](C)CC)CS1 [CSP32] ({Ileψ(thiazoline)Cys}-L[dE]IK[dOrn]I[dF]H[dD]N; lactam 4-C; N-terminus assumed)
significantly attenuated: Effect on LPS-induced IL-6 release [1] | Effect on LPS-induced IL-1β release [2] | Effect on LPS-induced TNF-α release [3]
